One test has as its system a-syn. As to the kind of experiment: FTI treatment of wild-type mice: a-syn levels in cortex. It is filed as in vivo. As to conditions: daily i.p. 0.9 mg/kg, 14 days. On the procedure:
FIGS. 15A, 15B, 15C, 15D, 15E, and 15F. FTI treatment of wild-type mice enhances ykt6 SNARE complexes, lysosomal activity, and reduces a-syn. 15A) Wild-type mice (C57Bl/6) were i.p. injected daily with FTI for 14 days at 0.9 mg/kg and compared to vehicle injected mice. Extracts from the cortex were analyzed for cytosolic (cyt) and membrane (mem) distribution of ykt6 (veh, n=5; FTI, n=6). 15B) Representative gel filtration/western blot analysis of cortical extracts of veh or FTI injected wild-type mice. Inputs are shown on the left. NSE indicates equal column loading. 15C) Quantification of ykt6 and STX5 complexes (ca. 120A) from gel filtration analysis in C (n=4 mice). Fraction 1 corresponds to complexes at 120A, while fractions 7-9 correspond to ykt6 monomers at 22-14 A. 15D) The levels of post ER (endo H resistant) GCase were analyzed by western blot and post ER/ER ratios were quantified from the cortex of FTI treated mice (veh, n=5; FTI, n=6). 15E) GCase activity was assessed in cortical lysates and normalized to total protein (veh, n=4; FTI, n=6). 15F) a-Syn levels were quantified from cytosolic or membrane isolated fractions from the cortex of wild-type FTI treated mice (veh, n=4; FTI, n=6). For all quantifications, values are the mean+/−SEM, *p<0.05.
Treatment of C57Bl/6 and DASYN53 mice with farnesyltransferase inhibitors. […]

The subject of another test is GCase. As to the kind of experiment: Analysis of post-ER GCase (endo H resistance) in FTI-treated cultures. In kind it is cell-based, human. The following applies: A53T iPSn and SHSY5Y cells. The protocol: FIGS. 5A, 5B, 5C, 5D, 5E, 5F, and 5G. Reducing farnesyl-ykt6 enhances SNARE assembly and improves the lysosomal targeting of GCase. 5A) Ykt6 membrane shift analysis of SH-SY5Y cells expressing GFP-ykt6 wt or CS (n=3). 5B) Co-IP of GFP-ykt6 and bet1 in A53T iPSn (n=3). 5C) Ykt6 membrane shift analysis in FTI-treated SH-SY5Y wt a-syn cells or A53T iPSn (5 nM farnesyltransferase inhibitors (FTI) LNK-754 (FTI-1) or LNK-3248 (FTI-2) for 5 days) (n=4). Sec22b was measured to assess specificity. 5D) SEC/western blot of FTI-1 treated SH-SY5Y cells. Quantification is shown below. 5E) Co-IP of GFP-ykt6 wt or mutant ykt6-SS, (cannot be palmitoylated or farnesylated) in FTI-treated SHSY5Y cells (5 nM LNK-754, 5d) (n=2). […]
FIGS. 14A, 14B, 14C, 14D, 14E, 14F, and 14G. […] 14A) Farnesylation of ykt6 was measured in SH-SY5Y cells expressing GFP-ykt6. […] Biotin was detected with streptavidin-conjugated IRDye800, and normalized to total levels of GFP-ykt6. […] Ykt6 complex levels eluting at ca. 120A were quantified on the right (n=2). […] 14E) Raw quantification data of LAMP2A immunofluorescence intensity of individual cells from H4 cells treated with FTI, +/−ykt6 KD. […] For all quantifications, values are the mean+/−SEM, *p<0.05.
Analysis of post-ER GCase. […] Endo H resistant bands migrating at 62-64 kDa were measured as post-ER forms of GCase, and normalized to GAPDH levels. […]

Consider 1 molecule from patent US12226410B2, “Methods for enhancing cellular clearance of pathological molecules via activation of the cellular protein ykt6” (NORTHWESTERN UNIVERSITY, priority 2019, dated 2025).

Turning to `C#Cc1cccc(-c2cc(=O)n(C)c3ccc([C@](O)(c4ccc(Cl)cc4)c4cncn4C)cc23)c1` [LNK-754], the a-syn levels entry with a-syn is “reduced a-syn levels”. In addition, in the test with GCase, the “mature, endo H-resistant GCase” value is reported as “significantly elevated”.
